From ChEMBL document CHEMBL1151260, “Expanding the ChemGPS chemical space with natural products” (J Nat Prod, 2005)

Assays:
[1] = target: T1, Prostaglandin G/H synthase 1 (Homo sapiens, UniProt P23219)
[2] = target: T2, Prostaglandin G/H synthase 2 (Homo sapiens) (UniProt P35354); assay: Inhibition of COX2 at 313 uM
T2 sequence (whole entry): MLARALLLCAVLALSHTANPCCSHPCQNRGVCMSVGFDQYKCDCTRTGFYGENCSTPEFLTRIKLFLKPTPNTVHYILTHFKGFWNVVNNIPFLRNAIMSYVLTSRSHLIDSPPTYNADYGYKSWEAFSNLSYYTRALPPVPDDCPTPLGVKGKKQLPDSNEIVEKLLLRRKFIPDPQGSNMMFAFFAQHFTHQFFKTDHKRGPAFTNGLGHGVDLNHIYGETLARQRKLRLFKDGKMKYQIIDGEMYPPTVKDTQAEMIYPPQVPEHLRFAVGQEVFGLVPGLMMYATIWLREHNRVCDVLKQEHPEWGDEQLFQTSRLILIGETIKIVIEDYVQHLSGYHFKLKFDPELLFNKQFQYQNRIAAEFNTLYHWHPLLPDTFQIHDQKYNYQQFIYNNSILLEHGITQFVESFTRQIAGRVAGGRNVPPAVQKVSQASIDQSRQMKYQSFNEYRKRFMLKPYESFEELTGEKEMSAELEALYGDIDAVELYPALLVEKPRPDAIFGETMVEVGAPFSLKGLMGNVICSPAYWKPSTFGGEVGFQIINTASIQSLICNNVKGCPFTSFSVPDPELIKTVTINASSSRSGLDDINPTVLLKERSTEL

[3] = target: T2, Prostaglandin G/H synthase 2 (Homo sapiens); assay: Inhibition of COX2 at 3.13 uM
[4] = target: T1, Prostaglandin G/H synthase 1; assay: Inhibition of COX1 at 1000 uM
[5] = target: T1, Prostaglandin G/H synthase 1; details: 180 ug/mL
Description: Inhibition of COX1 at 180 ug/mL

[6] = target: T2, Prostaglandin G/H synthase 2 (Homo sapiens); assay: Inhibition of COX2 at 0.1 ug/mL
SKGT4 [7] = assay: Inhibition of COX2 protein expression in human SKGT4 cells; format: functional, cell-based
SKGT4 [8] = assay: Inhibition of COX2 mRNA expression in human SKGT4 cells; format: functional, cell-based
[9] = target: T1, Prostaglandin G/H synthase 1; assay: Inhibition of COX1 at 200 ug/mL
[10] = target: T2, Prostaglandin G/H synthase 2 (Homo sapiens); assay: Inhibition of COX2 at 2.5 ug/mL
MCF-10A = assay: Inhibition of COX2 protein expression in human MCF10A cells; format: functional, cell-based
[11] = target: T2, Prostaglandin G/H synthase 2 (Homo sapiens); assay: Inhibition of COX2 at 25 uM
[12] = target: T1, Prostaglandin G/H synthase 1; assay: Inhibition of COX1 at 30 ug/mL
J774.A1 [13] = assay: Inhibition of COX2 protein expression in mouse J774A1 cells; format: functional, cell-based
DLD-1 = assay: Inhibition of COX2 mRNA expression in human DLD1 cells; format: functional, cell-based
[14] = target: T1, Prostaglandin G/H synthase 1; assay: Inhibition of COX1 at 2.5 ug/mL
RAW264.7 [15] = assay: Inhibition of COX2 protein expression in mouse RAW264.7 cells; format: functional, cell-based
J774.A1 [16] = assay: Inhibition of COX2 protein expression in mouse J774A1 cells at 5 uM; format: functional
[17] = target: T3, Prostaglandin G/H synthase 2 (Homo sapiens, UniProt P35354); assay: Inhibition of COX2 at 1000 uM
T3 sequence (P35354 whole entry): T2 sequence (whole entry)

[18] = target: T2, Prostaglandin G/H synthase 2 (Homo sapiens); assay: Inhibition of COX2 at 327 uM
RAW264.7 [19] = assay: Inhibition of COX2 mRNA expression in mouse RAW264.7 cells; format: functional, cell-based
[20] = target: T2, Prostaglandin G/H synthase 2 (Homo sapiens); assay: Inhibition of COX2 at 170 uM

T1 sequence (P23219 whole entry): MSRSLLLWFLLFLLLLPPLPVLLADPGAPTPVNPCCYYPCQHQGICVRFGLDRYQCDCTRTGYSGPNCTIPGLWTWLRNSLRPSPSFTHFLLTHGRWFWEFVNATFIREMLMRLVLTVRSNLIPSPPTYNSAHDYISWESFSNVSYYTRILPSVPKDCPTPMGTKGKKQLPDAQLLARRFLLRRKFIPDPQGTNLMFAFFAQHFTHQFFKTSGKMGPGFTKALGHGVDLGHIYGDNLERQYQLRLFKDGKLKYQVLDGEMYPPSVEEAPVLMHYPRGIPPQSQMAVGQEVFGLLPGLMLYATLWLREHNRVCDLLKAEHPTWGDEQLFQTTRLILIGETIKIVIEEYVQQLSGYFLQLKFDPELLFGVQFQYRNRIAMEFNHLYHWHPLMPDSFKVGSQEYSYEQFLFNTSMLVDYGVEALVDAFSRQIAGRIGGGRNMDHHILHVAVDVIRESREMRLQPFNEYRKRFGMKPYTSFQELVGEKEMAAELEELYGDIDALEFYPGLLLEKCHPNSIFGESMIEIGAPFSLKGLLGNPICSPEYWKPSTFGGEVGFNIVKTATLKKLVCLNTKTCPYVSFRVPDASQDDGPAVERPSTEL

SMILES | IC50 [1] | also measured
CC(C)=CCC/C(C)=C\CC1=CC(=O)C=C(C)C1=O | 64 µM | –
C=C1CCC[C@]2(C)CC[C@@H]([C@@](C)(O)CO)C[C@]12O | 1.3 µM | –
O=C(O)[C@H]1O[C@@H](Oc2c(-c3cc(O)c(O)c(O)c3)oc3cc(O)cc(O)c3c2=O)[C@H](O)[C@@H](O)[C@@H]1O | 10 µM | –
CC/C=C/C/C=C/C/C=C/C/C=C/CC/C=C/COCC(=O)O | 50 µM | –
C=C[C@@H](O)C#CC#C[C@@H](O)/C=C/CCCCCCCC(=O)OC(C)=O | 73 µM | –
COc1c(O)cc([C@@H]2Oc3cc(O)cc(O)c3C[C@H]2O)cc1O | 12 µM | inhibition [2]: 61%
COc1c(O)cc([C@H]2Oc3cc(O)cc(O)c3C[C@H]2O)cc1O | 3.3 µM | inhibition [3]: 23%
CC/C=C/C/C=C/C/C=C/C/C=C/CCSCCCC(=O)O | 81 µM | –
CC(=O)Oc1ccccc1C(=O)O | – | inhibition [4]: 46%; inhibition [5]: 52%
CC(C)[C@@H]1CC[C@@H](C)C[C@H]1O | – | inhibition [6]: 60%
COc1cc(-c2cc(=O)c3c(O)c(OC)c(OC)c(O)c3o2)ccc1O | – | inhibition [4]: 37%
COc1cc(-c2cc(=O)c3cc(OC)c(OC)cc3o2)ccc1O | – | inhibition [4]: 37%
COc1cc(/C=C/C(=O)CC(=O)/C=C/c2ccc(O)c(OC)c2)ccc1O | – | Activity (SKGT4 [7]): Dose-dependent effect; Activity (SKGT4 [8]): Dose-dependent effect
COc1cc(O[C@@H]2O[C@H](CO)[C@@H](O)[C@H](O)[C@H]2O)cc2oc(-c3ccc(O)cc3)cc(=O)c12 | – | inhibition [9]: 13%
C[C@@H]1O[C@@H](O[C@H]2[C@H](Oc3cc(O)c4c(=O)cc(-c5ccc(O)cc5)oc4c3)O[C@H](CO)[C@@H](O)[C@@H]2O)[C@H](O)[C@H](O)[C@H]1O | – | inhibition [10]: 20%
O=C(/C=C/c1ccc(O)c(O)c1)O[C@H](Cc1ccc(O)c(O)c1)C(=O)O | – | inhibition [4]: 58%
O=C(CCc1ccc(O)c(O)c1)C[C@@H](O)CCc1ccc(O)c(O)c1 | – | Activity (MCF-10A): Dose-dependent effect
O=C(O[C@@H]1Cc2c(O)cc(O)cc2O[C@@H]1c1cc(O)c(O)c(O)c1)c1cc(O)c(O)c(O)c1 | – | inhibition [11]: 13%; inhibition [12]: 51%
O=C1C[C@@H](c2ccc(O)cc2)Oc2cc(O)cc(O)c21 | – | Activity (J774.A1 [13]): Dose-dependent effect
O=c1c(O)c(-c2ccc(O)c(O)c2)oc2cc(O)cc(O)c12 | – | inhibition [10]: 40%; Activity (DLD-1): Dose-dependent effect; inhibition [14]: 90%

SMILES | IC50 [1] | also measured
O=c1c(O[C@@H]2O[C@H](CO)[C@@H](O)[C@H](O)[C@H]2O)c(-c2ccc(O)c(O)c2)oc2cc(O)cc(O)c12 | – | inhibition [10]: 25%
O=c1cc(-c2ccc(O)c(O)c2)oc2cc(O)cc(O)c12 | – | inhibition [14]: 75%
Oc1cc(O)c2c(c1)O[C@H](c1ccc(O)c(O)c1)[C@H](O)C2 [(-)-EPICATECHIN] | – | IC50 (DLD-1): 415 µM
C=C1C(=O)C(O)=C[C@@H]2[C@]3(C)CC[C@](C)(C(=O)CO)C[C@@H]3CC[C@]12C [AKENDO 3] | 34 µM | –
O=c1cc(-c2ccc(O)cc2)oc2cc(O)cc(O)c12 [APIGENIN] | – | IC50 (RAW264.7 [15]): 500 nM; inhibition [4]: 65%; inhibition at 5 µM (J774.A1 [16]): 64%
C[C@@H]1OC(O[C@@H]2[C@@H](O)[C@H](OCCc3ccc(O)c(O)c3)O[C@H](CO[C@@H]3OC[C@](O)(CO)[C@H]3O)[C@H]2OC(=O)/C=C/c2ccc(O)c(O)c2)[C@H](O[C@@H]2OC[C@H](O)[C@H](O)[C@H]2O)[C@H](O)[C@H]1O (stereo partly specified) [BALLOTETROSIDE] | 1000 µM | –
C=C1CC/C=C(\C)C(=O)[C@H](OC(C)=O)[C@@H]2[C@@H]1CC2(C)C [BUDDLEDIN A] | 14 µM | –
O=C(/C=C/c1ccc(O)c(O)c1)OCCc1ccccc1 [CAFFEIC ACID PHENETHYL ESTER] | 58 µM | –
COc1cc(CNC(=O)CCCC/C=C/C(C)C)ccc1O [CAPSAICIN] | 3.8 µM | –
Cc1ccc(C(C)C)cc1O [CARVACROL] | 4 µM | –
Oc1cc(O)c2c(c1)O[C@H](c1ccc(O)c(O)c1)[C@@H](O)C2 [CIANIDANOL] | 80 µM | –
COc1cc2oc(-c3ccc(O)cc3)cc(=O)c2c(O)c1OC [CIRSIMARITIN] | – | IC50 [17]: 6%
COc1cc(/C=C/CO)ccc1O[C@@H]1O[C@H](CO)[C@@H](O)[C@H](O)[C@H]1O [CONIFERIN] | 75 µM | –
O=c1ccc2ccc(O)c(O)c2o1 [DAPHNETIN] | 140 µM | –
C=CCc1ccc(O)c(OC)c1 [EUGENOL] | 11 µM | inhibition [4]: 97%
C=CCc1ccc(OC(C)=O)c(OC)c1 [EUGENYL ACETATE] | 3 µM | –
C=C[C@@H](O)C#CC#C[C@@H](O)/C=C\CCCCCCC [FALCARINDIOL] | 66 µM | –
COc1ccc2cc1Oc1ccc(cc1)C[C@H]1c3cc(c(OC)cc3CCN1C)Oc1c(O)c(OC)cc3c1[C@H](C2)N(C)CC3 [FANGCHINOLINE] | 129 µM | –
COc1cc2ccc(=O)oc2c(O)c1O [FRAXETIN] | 524 µM | –
O=c1c(O)c(-c2ccccc2)oc2cc(O)cc(O)c12 [GALANGIN] | – | inhibition at 5 µM (J774.A1 [16]): 59%

SMILES | IC50 [1] | also measured
Oc1cc(O)c2c(c1)O[C@H](c1cc(O)c(O)c(O)c1)[C@@H](O)C2 [GALLOCATECHIN] | 95 µM | inhibition [18]: 46%
O=c1c(-c2ccc(O)cc2)coc2cc(O)cc(O)c12 [GENISTEIN] | 80 µM | –
CC1(C)CC[C@]2(C)CC[C@]3(C)[C@H]4CC=C5[C@@H](CCC(=O)C5(C)C)[C@]4(C)CC[C@@]3(C)[C@@H]2C1 [GLUTINONE] | 3.6 µM | –
C[C@@H]1CC(=O)[C@]2(CO)[C@H](CCC[C@]23CO3)[C@@]12C[C@@H](c1ccoc1)OC2=O [GNAPHALIN] | 40 µM | –
O=c1c(O)c(-c2ccc(O)cc2)oc2cc(O)cc(O)c12 [KAEMPFEROL] | – | IC50 (RAW264.7 [19]): < 15 µM
CC(C)=CCc1c([C@@H]2CCc3ccc(O)cc3O2)cc2c(c1O)OC(C)(C)C=C2 [KAZINOL B] | > 100 µM | –
C=C(C)[C@H](CC=C(C)C)Cc1c(O)cc(OC)c(C(=O)/C=C/c2ccc(O)cc2O)c1O [KURAIDIN] | 0.6 µM | –
C=C(C)C(CC=C(C)C)Cc1c(O)cc(OC)c2c1O[C@H](c1ccc(O)cc1O)CC2=O (stereo partly specified) [KURARINONE] | 0.6 µM | –
C=C1CCC[C@]2(C)CC[C@@H]([C@@](C)(O)CO)C[C@@]12O [KUTDTRIOL] | 39 µM | –
CC(C)=CCc1c(-c2ccc(O)cc2O)oc2c(CC=C(C)C)c(O)cc(O)c2c1=O [KUWANON C] | 62 µM | –
CCCCC/C=C\C/C=C\CCCCCCCC(=O)O [LINOLEIC ACID] | 13 µM | –
CC(=O)[C@H]1CC[C@]2(C)CC[C@@H]([C@](C)(O)CO)C[C@]12O [LUCINONE] | 43 µM | –
CC(C)=CCc1c(O)ccc2ccc(=O)oc12 [OSTHENOL] | 64 µM | –
COc1c(O)cc([C@H]2Oc3c(c(O)cc(O)c3[C@H]3c4c(O)cc(O)cc4O[C@H](c4ccc(O)cc4)[C@@H]3O)C[C@H]2O)cc1O [OURATEAPROANTHOCYANIDIN A] | 138 µM | inhibition [20]: 37%
OC[C@H]1O[C@@H](OCCc2ccc(O)cc2)[C@H](O)[C@@H](O)[C@@H]1O [SALIDROSIDE] | 72 µM | –
CC(C)=CCC12Oc3cc(O)c(C4=CC5(C)CC(C4)c4ccc(O)cc4O5)c(O)c3C(=O)C1(O)Oc1cc(O)ccc12 (stereo unspecified) [SANGGENON B] | 42 µM | –
CC(C)=CCC12Oc3cc(O)ccc3C1(O)Oc1cc(O)c([C@H]3C=C(C)C[C@@H](c4ccc(O)cc4O)[C@@H]3C(=O)c3ccc(O)cc3O)c(O)c1C2=O (stereo partly specified) [SANGGENON D] | 59 µM | –
COc1cc(/C=C/CO)cc(OC)c1O[C@@H]1O[C@H](CO)[C@@H](O)[C@H](O)[C@H]1O [SYRINGIN] | 36 µM | –
CC(/C=C/C=C(\C)C(=O)O)=C\C=C\C=C(C)\C=C\C=C(/C)C(=O)O [TRANSCROCETIN] | 28 µM | –
